This passage reports inhibition results from ChEMBL document CHEMBL3576804, “Novel Potent Orthosteric Antagonist of ASIC1a Prevents NMDAR-Dependent LTP Induction” (J Med Chem, 2015).

Holding throughout (assay type): cell-based
For assay [1], the target named is T1, Acid-sensing ion channel 1 (Homo sapiens) (UniProt P78348).
T1 sequence (whole entry): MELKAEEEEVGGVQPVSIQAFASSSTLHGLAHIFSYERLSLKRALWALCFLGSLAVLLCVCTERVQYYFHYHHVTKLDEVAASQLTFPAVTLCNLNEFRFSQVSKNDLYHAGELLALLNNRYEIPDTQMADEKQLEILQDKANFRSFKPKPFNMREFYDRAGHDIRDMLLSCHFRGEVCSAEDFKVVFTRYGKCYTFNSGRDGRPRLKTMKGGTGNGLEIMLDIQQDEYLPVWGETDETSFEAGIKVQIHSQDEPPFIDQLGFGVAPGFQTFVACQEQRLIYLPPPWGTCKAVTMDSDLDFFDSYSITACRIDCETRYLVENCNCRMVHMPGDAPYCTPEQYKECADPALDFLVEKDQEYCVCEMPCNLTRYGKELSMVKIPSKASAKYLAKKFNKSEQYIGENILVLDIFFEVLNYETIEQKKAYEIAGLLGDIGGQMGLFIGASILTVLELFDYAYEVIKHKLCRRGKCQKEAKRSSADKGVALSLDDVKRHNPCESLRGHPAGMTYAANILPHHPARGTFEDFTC
Description: Inhibition of human ASIC1a endogenously expressed in HEK293 cells clamped at -100 mV gated ionic current at 10 uM by standard whole cell patch clamp assay. A general note: The patch-clamp technique gives a direct electrical read-out from membranes.

Assay [2] deals with T1, Acid-sensing ion channel 1 (Homo sapiens). Description: Inhibition of human ASIC1a endogenously expressed in HEK293 cells clamped at -20 mV gated ionic current at 10 uM by standard whole cell patch clamp assay.
For assay [3] the target is unchanged. Put plainly: Inhibition of human ASIC1a endogenously expressed in HEK293 cells clamped at -100 mV gated ionic current at 10 uM in presence of cellular membrane depolarization by standard whole cell patch clamp assay.
Assay [4] has the same target. Put plainly: Inhibition of human ASIC1a endogenously expressed in HEK293 cells clamped at -100 mV gated ionic current at 100 uM at pH 5.0 by standard whole cell patch clamp assay.
Assay [5] shares this target. Description: Inhibition of human ASIC1a endogenously expressed in HEK293 cells clamped at -100 mV gated ionic current at 10 uM at pH 5.0 by standard whole cell patch clamp assay.
The target is the same in assay [6]. Description: Inhibition of human ASIC1a endogenously expressed in HEK293 cells clamped at -100 mV gated ionic current at 100 uM at pH 6.7 by standard whole cell patch clamp assay.
Assay [7] has the same target. Description: Inhibition of human ASIC1a endogenously expressed in HEK293 cells clamped at -100 mV gated ionic current at 10 uM at pH 6.7 by standard whole cell patch clamp assay.
The target is the same in assay [8]. Description: Inhibition of human ASIC1a endogenously expressed in HEK293 cells clamped at -100 mV gated ionic current at 100 nM at pH 5.0 by standard whole cell patch clamp assay.
For assay [9] the target is unchanged. Description: Inhibition of human ASIC1a endogenously expressed in HEK293 cells clamped at -100 mV gated ionic current at 100 nM at pH 6.7 by standard whole cell patch clamp assay.
For assay [10] the target is unchanged. Put plainly: Reversible inhibition of human ASIC1a endogenously expressed in HEK293 cells clamped at -100 mV gated ionic current at 100 nM to 100 uM at pH 6.7 by standard whole cell patch clamp assay.
Assay [11] shares this target. Put plainly: Reversible inhibition of human ASIC1a endogenously expressed in HEK293 cells clamped at -100 mV gated ionic current at 100 nM to 100 uM at pH 5.0 by standard whole cell patch clamp assay.

Activity calls are given as the source filed them. No cut-off for these calls is given here.

As usually defined, the inhibition is the change of the read-out against control, counted positive when it falls. Take `N=C(N)NC(=O)c1nc(Cl)c(N)nc1N`: the inhibition is 41.3% in [1] and 60.7% in assay [2]. Moreover, in assay [3], the inhibition entry was “inactive”.
As to `CCN(CC)CCN(Cc1ccccc1)c1ccc2cc(C(=N)N)c(=O)oc2c1`, the inhibition in [4] came to 28.8%; in assay [5] it was 65.7%; in assay [6] it was 3.7%; in [7], 22.1%; in assay [8], 96.1%; in assay [9] it was 68.9%. The inhibition entry in assay [10] and in [11] was “Active” throughout.
Turning to `CCN(CC)c1ccc2cc(C(=N)N)c(=O)oc2c1`, the inhibition in assay [4] is 41%; in assay [6], 49%.
